Assays:
HCT116-MTAP-KO = experiment: Cell killing in HCT116 isogenic pair (Cell Titer-Glo viability), MTAP knock-out cells; assay type: cell-based, human; conditions: Homo sapiens, HCT-116, 144 h, 6 days incubation, 0-10 μM, * = more than 50% viability inhibition at tested concentration without a full curve
Procedure, shortened: (§1)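 Viability was read by CellTiter-Glo luminescence after 6 days of compound treatment (0–10 μM final, 37° C, 5% CO2), and IC50 values were fitted. The isogenic HCT116 pair, MTAP-KO clone versus mock-KO MTAP-wildtype, was grown in RPMI 1640 plus 10% FBS and seeded the day before.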

HCT116-mock-RNA-KO = experiment: Cell killing in HCT116 isogenic pair (Cell Titer-Glo viability), mock knock-out cells with MTAP wildtype genotype; assay type: cell-based, human; conditions: Homo sapiens, HCT-116, 144 h, 6 days incubation, 0-10 μM
Procedure, shortened: as §1

| Structure (SMILES) | IC50 (HCT116-MTAP-KO) | IC50 (HCT116-mock-RNA-KO) |
| --- | --- | --- |
| CCN(C(=O)c1cc2nc(N)c3c(c2[nH]1)CO[C@@H]3C)[C@H](C)c1ncc(C(F)(F)F)cc1F [Example 130, (R)-5-amino-N-ethyl-N—((R)-1-(3-fluoro-5-(trifluoromethyl)pyridin-2-yl)ethyl)-6-methyl-6,8-dihydro-1H-furo[3,4-d]pyrrolo[3,2-b]pyridine-2-carboxamide] | 8.5 nM | 1090 nM |
| CCN(C(=O)c1cc2nc(N)c3c(c2[nH]1)CO[C@@H]3C)[C@H](C)c1ncc(Br)cc1F [Example 128, (R)-5-amino-N—((R)-1-(5-bromo-3-fluoropyridin-2-yl)ethyl)-N-ethyl-6-methyl-6,8-dihydro-1H-furo[3,4-d]pyrrolo[3,2-b]pyridine-2-carboxamide] | 6 nM | 1050 nM |
| C[C@H]1OCc2c1c(N)nc1cc(C(=O)N(C)[C@H]3COC4(CC4)c4cc(C(F)(F)F)cc(F)c43)[nH]c21 [Example 169, (R)-5-amino-N—((R)-5′-fluoro-7′-(trifluoromethyl)spiro[cyclopropane-1,1′-isochroman]-4′-yl)-N,6-dimethyl-6,8-dihydro-1H-furo[3,4-d]pyrrolo[3,2-b]pyridine-2-carboxamide] | 565 nM | 2110 nM |
| Nc1nc2cc(C(=O)N(Cc3c(F)cccc3F)CC3CC3)[nH]c2c2c1COC2 [Example 33, 5-amino-N-(cyclopropylmethyl)-N-(2,6-difluorobenzyl)-6,8-dihydro-1H-furo[3,4-d]pyrrolo[3,2-b]pyridine-2-carboxamide] | 210 nM | > 10000 nM |
| CN(C(=O)c1cc2nc(N)c3c(c2[nH]1)COC3)[C@@H]1COC2(CC2)c2cc(C(F)(F)F)cc(F)c21 [Example 168, (S)-5-amino-N-(5′-fluoro-7′-(trifluoromethyl)spiro[cyclopropane-1,1′-isochroman]-4′-yl)-N-methyl-6,8-dihydro-1H-furo[3,4-d]pyrrolo[3,2-b]pyridine-2-carboxamide] | 8.4 nM | 2110 nM |
| C[C@H](c1ccc(Br)cc1F)N(C)C(=O)c1cc2nc(N)c3c(c2[nH]1)COC3 [Example 137, (R)-5-amino-N-(1-(4-bromo-2-fluorophenyl)ethyl)-N-methyl-6,8-dihydro-1H-furo[3,4-d]pyrrolo[3,2-b]pyridine-2-carboxamide] | 44 nM | 3020 nM |
| CC(=O)N1CC[C@@H](N(C)C(=O)c2cc3nc(N)c4c(c3[nH]2)COC4)c2ccc(C(F)(F)F)cc21 [Example 90, (R)—N-(1-acetyl-7-(trifluoromethyl)-1,2,3,4-tetrahydroquinolin-4-yl)-5-amino-N-methyl-6,8-dihydro-1H-furo[3,4-d]pyrrolo[3,2-b]pyridine-2-carboxamide] | 29 nM | 5450 nM |
| Nc1nc2cc(C(=O)N(Cc3ccc(-c4c(F)cccc4F)cn3)Cc3c(F)cccc3F)[nH]c2c2c1COC2 [Example 13, 5-amino-N-(2,6-difluorobenzyl)-N-((5-(2,6-difluorophenyl)pyridin-2-yl)methyl)-6,8-dihydro-1H-furo[3,4-d]pyrrolo[3,2-b]pyridine-2-carboxamide] | 4.6 nM | 251 nM |
| C[C@@H](c1ccc(Br)cc1F)N(C)C(=O)c1cc2nc(N)c3c(c2[nH]1)COC3 [Example 138, (S)-5-amino-N-(1-(4-bromo-2-fluorophenyl)ethyl)-N-methyl-6,8-dihydro-1H-furo[3,4-d]pyrrolo[3,2-b]pyridine-2-carboxamide] | 913 nM | 3240 nM |
| COCC(COC)N(Cc1ccc(-c2c(F)cccc2F)cn1)C(=O)c1cc2nc(N)c3c(c2[nH]1)COC3 [Example 16, 5-amino-N-((5-(2,6-difluorophenyl)pyridin-2-yl)methyl)-N-(1,3-dimethoxypropan-2-yl)-6,8-dihydro-1H-furo[3,4-d]pyrrolo[3,2-b]pyridine-2-carboxamide] | 1 nM | 165 nM |
| CO[C@@H]1CCOC[C@H]1N(Cc1ccc(C2CC2)cn1)C(=O)c1cc2nc(N)c3c(c2[nH]1)COC3 [Example 36, 5-amino-N-((5-cyclopropylpyridin-2-yl)methyl)-N-((3R,4R)-4-methoxytetrahydro-2H-pyran-3-yl)-6,8-dihydro-1H-furo[3,4-d]pyrrolo[3,2-b]pyridine-2-carboxamide] | 5.8 nM | 445 nM |
| Nc1nc2cc(C(=O)N(Cc3ccc(-c4c(F)cncc4F)cn3)Cc3c(F)cccc3F)[nH]c2c2c1COC2 [Example 30, 5-amino-N-((3′,5′-difluoro-[3,4′-bipyridin]-6-yl)methyl)-N-(2,6-difluorobenzyl)-6,8-dihydro-1H-furo[3,4-d]pyrrolo[3,2-b]pyridine-2-carboxamide] | 0.8 nM | 22 nM |
| CCN(C(=O)c1cc2nc(N)c3c(c2[nH]1)COC3)[C@H](C)c1ccc(C(F)(F)F)cc1F [Example 135, (R)-5-amino-N-ethyl-N-(1-(2-fluoro-4-(trifluoromethyl)phenyl)ethyl)-6,8-dihydro-1H-furo[3,4-d]pyrrolo[3,2-b]pyridine-2-carboxamide] | 26 nM | 2130 nM |
| CN(C(=O)c1cc2nc(N)c3c(c2[nH]1)COC3)[C@@H]1COCc2cc(C#N)cc(F)c21 [Example 97, (S)-5-amino-N-(7-cyano-5-fluoroisochroman-4-yl)-N-methyl-6,8-dihydro-1H-furo[3,4-d]pyrrolo[3,2-b]pyridine-2-carboxamide] | 17 nM | 2890 nM |
| CN(C(=O)c1cc2nc(N)c3c(c2[nH]1)COC3)[C@@H]1COCc2cc(I)ccc21 [Example 84, (S)-5-amino-N-(7-iodoisochroman-4-yl)-N-methyl-6,8-dihydro-1H-furo[3,4-d]pyrrolo[3,2-b]pyridine-2-carboxamide] | 10 nM | 2200 nM |
| C[C@@H](c1ccc(C2CC2)cn1)N(C(=O)c1cc2nc(N)c3c(c2[nH]1)COC3)C1CCC1 [Example 160, (S)-5-amino-N-cyclobutyl-N-(1-(5-cyclopropylpyridin-2-yl)ethyl)-6,8-dihydro-1H-furo[3,4-d]pyrrolo[3,2-b]pyridine-2-carboxamide] | 598 nM | > 10000 nM |
| CC(=O)N1Cc2cc(C(F)(F)F)ccc2[C@@H](N(C)C(=O)c2cc3nc(N)c4c(c3[nH]2)COC4)C1 [Example 99, (R)—N-(2-acetyl-7-(trifluoromethyl)-1,2,3,4-tetrahydroisoquinolin-4-yl)-5-amino-N-methyl-6,8-dihydro-1H-furo[3,4-d]pyrrolo[3,2-b]pyridine-2-carboxamide] | 722 nM | > 10000 nM |
| Nc1nc2cc(C(=O)N(Cc3ncccc3F)Cc3ncccc3F)[nH]c2c2c1COC2 [Example 7, 5-amino-N,N-bis((3-fluoropyridin-2-yl)methyl)-6,8-dihydro-1H-furo[3,4-d]pyrrolo[3,2-b]pyridine-2-carboxamide] | 30 nM | 3140 nM |
| CN(C(=O)c1cc2nc(N)c3c(c2[nH]1)COC3)[C@H]1COCc2cc(C(F)(F)F)cnc21 [Example 163, (R)-5-amino-N-methyl-N-(3-(trifluoromethyl)-7,8-dihydro-5H-pyrano[4,3-b]pyridin-8-yl)-6,8-dihydro-1H-furo[3,4-d]pyrrolo[3,2-b]pyridine-2-carboxamide] | > 10000 nM | > 10000 nM |
| Cn1ncnc1-c1ccc(CN(C(=O)c2cc3nc(N)c4c(c3[nH]2)COC4)[C@@H]2CCCc3cccnc32)nc1 [Example 25, (R)-5-amino-N-((5-(1-methyl-1H-1,2,4-triazol-5-yl)pyridin-2-yl)methyl)-N-(5,6,7,8-tetrahydroquinolin-8-yl)-6,8-dihydro-1H-furo[3,4-d]pyrrolo[3,2-b]pyridine-2-carboxamide] | 96 nM | 2000 nM |
| CN(C(=O)c1[nH]c2c3c(c(N)nc2c1C#N)COC3)[C@@H]1COCc2cc(C(F)(F)F)ccc21 [Example 92, (S)-5-amino-3-cyano-N-methyl-N-(7-(trifluoromethyl)isochroman-4-yl)-6,8-dihydro-1H-furo[3,4-d]pyrrolo[3,2-b]pyridine-2-carboxamide] | 49 nM | 2050 nM |
| CCN(C(=O)c1cc2nc(N)c3c(c2[nH]1)COC3)[C@H](C)c1ncc(Br)cc1F [Example 143, (R)-5-amino-N-(1-(5-bromo-3-fluoropyridin-2-yl)ethyl)-N-ethyl-6,8-dihydro-1H-furo[3,4-d]pyrrolo[3,2-b]pyridine-2-carboxamide] | 11 nM | 1380 nM |
| COC[C@@H](C)N(Cc1cnc(C2CC2)cn1)C(=O)c1cc2nc(N)c3c(c2[nH]1)COC3 [Example 53, (R)-5-amino-N-((5-cyclopropylpyrazin-2-yl)methyl)-N-(1-methoxypropan-2-yl)-6,8-dihydro-1H-furo[3,4-d]pyrrolo[3,2-b]pyridine-2-carboxamide] | 34 nM | > 10000 nM |
| CO[C@@H]1CCOC[C@H]1N(Cc1ccc(-c2ccncc2)cn1)C(=O)c1cc2nc(N)c3c(c2[nH]1)COC3 [Example 28, N-([3,4′-bipyridin]-6-ylmethyl)-5-amino-N-((3R,4R)-4-methoxytetrahydro-2H-pyran-3-yl)-6,8-dihydro-1H-furo[3,4-d]pyrrolo[3,2-b]pyridine-2-carboxamide] | 11 nM | 1900 nM |
| CCN(C(=O)c1cc2nc(N)c3c(c2[nH]1)CO[C@@H]3C)[C@@H](C)c1ccc(C(F)(F)F)cc1F [Example 127, (R)-5-amino-N-ethyl-N—((S)-1-(2-fluoro-4-(trifluoromethyl)phenyl)ethyl)-6-methyl-6,8-dihydro-1H-furo[3,4-d]pyrrolo[3,2-b]pyridine-2-carboxamide] | 236 nM | 5900 nM |
| CN(C(=O)c1cc2nc(N)c3c(c2[nH]1)COC3)[C@H]1COCc2cc(Br)ccc21 [Example 64, (R)-5-amino-N-(7-bromoisochroman-4-yl)-N-methyl-6,8-dihydro-1H-furo[3,4-d]pyrrolo[3,2-b]pyridine-2-carboxamide] | 362 nM | > 10000 nM |
